Key:
[1] = system: female Culex pipiens pallens; experiment: Efficacy of pesticide incense coils on mosquito (GB13917.4-92, airtight cask); type: in vivo; conditions: for KT50: pesticide incense coil, 0.04 w/w % active ingredient, ignited and removed after 1 min, 20 female mosquitoes; for relative efficacy compared with dimefluthrin: incense coil 0.04 w/w %, from KT50 of table 1
Description: To a mixture of corn starch, carbon powder and wood flour (1:5:4, 99.96 parts by weight) was added water (120 parts by weight) and the resulting mixture was kneaded, and then dried to give a pesticide incense coil substrate (diameter: 12.0 cm; thickness: 4 mm; one pair of substrates' weight: 40 g).
On the other hand, a 0.4 w/v % solution of compound 1 in kerosene was prepared.
The above solution (4 ml) was uniformly sprayed on the incense coil substrate with a micro-syringe, and then kept for airing at room temperature for 3 hours to get of a pesticide incense coil I containing compound 1 according to the present invention (0.04 w/w %).
Similarly, a 0.4 w/v % solution of compound 2 in kerosene was prepared and a pesticide incense coil II containing compound 2 (0.04 w/w %) was be obtained.
A 0.4 w/v % solution of compound 3 in kerosene was prepared and a pesticide incense coil III containing compound 3 (0.04 w/w %) was obtained;
A 0.4 w/v % solution of compound 4 in kerosene was prepared and a pesticide incense coil IV containing compound 4 (0.04 w/w %) was obtained;
A 0.4 w/v % solution of compound 6 in kerosene was prepared and a pesticide incense coil V containing compound 6 (0.04 w/w %) was obtained;
A 0.4 w/v % solution of dimefluthrin in kerosene was prepared and a pesticide incense coil VI containing dimefluthrin (0.04 w/w %) was obtained.
The efficacy of pesticide coils I-Vi on mosquito were tested and compared according to GB13917.4-92). In particular, the test pests are female Culex pipiens pallens (2-3 days old, fasten). Firstly, 20 test mosquitoes were captured and put into airtight cask testing device with a mosquito-sucking tube, a section of pesticide incense coil to be tested was put on shelves, then ignited and removed after 1 min.

Fly = experiment: Efficacy of aerosol pesticide on fly (GB13917.2-92); type: in vivo; conditions: 1 g sprayed
Description: (§1) Compound 1 (0.3 parts by weight) and kerosene (59.7 parts by weight) are mixed under heating to prepare a pesticide. The pesticide was placed in aerosol cans with a valve and then a mixture of propane and butane (40.0 parts by weight) was injected into tank through the valve at positive pressure to get an aerosol pesticide, which contains […] compound 1.
(§2) The efficacy of the aerosol pesticide on Mosquitoes, flies and blattella germanicas were tested according to GB13917.2-92. In particular, the test pests were placed into a tank. After all test pests restored normal activities, 1 g aerosol pesticide from aerosol cans was sprayed into the tank. Take the barrier plate away to make pests exposed to the aerosol pesticide and the number of killed pests was recorded at regular intervals, then all test pests were transferred to a clean cage after 20 mins, the number of dead pests was counted after 24 hours and the mortality of blattella germanicas at 72 h was determined.

sanitary pests = experiment: Efficacy comparison of stereoisomers in controlling sanitary pests (experiments not detailed); conditions: for efficacy of isomer relative to other isomers: qualitative statement from applicant's study
Blattella germanica = experiment: Efficacy of aerosol pesticide on blattella germanica (GB13917.2-92); type: in vivo; conditions: 1 g sprayed
Description: as §1, §2

Mosquito [2] = experiment: Efficacy of aerosol pesticide on mosquito (GB13917.2-92); type: in vivo; conditions: 1 g sprayed
Description: as §1, §2

Mosquito [3] = experiment: Volatile agent on filter paper hung on the door of a room, mosquito invasion; type: in vivo; conditions: 1 mg on filter paper 20 cm×50 cm, volatilised at room temperature, hung on edge of door
Description: Compound 6 (2,3,5,6-tetrafluoro-4-methoxymethylbenzyl-1R, trans-(Z)-3-(3,3,3-trifluoro-1-prop ylene)-2,2-dimethylcyclopropane carboxylate, 1 mg) was dissolved in acetone (20 ml) to obtain a solution. The resulting solution was distributed on a filter paper (20 cm×50 cm) and air-dried to remove the acetone to obtain a volatile agent.

[4] = aerosol pesticide from compound 1 (0.3 parts by weight)
[5] = aerosol pesticide, 20 min exposure, 24 h

COCc1c(F)c(F)c(COC(=O)C2C(C=C(C)C)C2(C)C)c(F)c1F (stereo not drawn) [Dimefluthrin, dimefluthrin, reference compound]
KT50 [1]: 7.6 min

COCc1c(F)c(F)c(COC(=O)[C@@H]2C(/C=C\C(F)(F)F)C2(C)C)c(F)c1F (stereo partly drawn) [Compound 1, 2,3,5,6-tetrafluoro-4-methoxymethylbenzyl-1R-(Z)-3-(3,3,3-trifluoro-1-propenyl)-2,2-dimethylcyclopropane carboxylate]
KT50 (mosquito/fly/cockroach) (Fly; [4]): 4.3 min | Mortality during 24 h (Fly; [5]): 100% | cross resistance compared to traditional pyrethroid products such as allethrin (sanitary pests; control of sanitary pests): doesn't have cross resistance | efficacy of isomer relative to other isomers (sanitary pests): highly active isomer | KT50 (mosquito/fly/cockroach) (Blattella germanica; [4]): 6.2 min | Mortality (72 h) (Blattella germanica; aerosol pesticide, 20 min exposure, 72 h): 90% | KT50 (mosquito/fly/cockroach) (Mosquito [2]; [4]): 4.8 min | Mortality during 24 h (Mosquito [2]; [5]): 100% | relative efficacy compared with dimefluthrin [1]: more than twice that of dimefluthrin | KT50 [1]: 3.2 min

COCc1c(F)c(F)c(COC(=O)[C@H]2C(/C=C\C(F)(F)F)C2(C)C)c(F)c1F (stereo partly drawn) [Compound 3, 2,3,5,6-tetrafluoro-4-methoxymethylbenzyl-1S-(Z)-3-(3,3,3-trifluoro-1-propenyl)-2,2-dimethyl cyclopropane carboxylate]
KT50 [1]: 5.1 min

COCc1c(F)c(F)c(COC(=O)[C@@H]2C(/C=C/C(F)(F)F)C2(C)C)c(F)c1F (stereo partly drawn) [Compound 2, 2,3,5,6-tetrafluoro-4-methoxymethylbenzyl-1R-(E)-3-(3,3,3-trifluoro-1-propenyl)-2,2-dimethylcyclopropane carboxylate]
KT50 [1]: 5.2 min

COCc1c(F)c(F)c(COC(=O)[C@H]2C(/C=C/C(F)(F)F)C2(C)C)c(F)c1F (stereo partly drawn) [Compound 4, 2,3,5,6-tetrafluoro-4-methoxymethylbenzyl-1S-(E)-3-(3,3,3-trifluoro-1-propenyl)-2,2-dimethylcyclopropane carboxylate]
KT50 [1]: 8.2 min

COCc1c(F)c(F)c(COC(=O)[C@@H]2[C@@H](/C=C\C(F)(F)F)C2(C)C)c(F)c1F (relative stereo) [Compound 6, 2,3,5,6-tetrafluoro-4-methoxymethylbenzyl-1R, trans-(Z)-3-(3,3,3-trifluoro-1-propenyl)-2,2-dimethyl cyclopropane carboxylate]
efficacy of isomer relative to other isomers (sanitary pests): slightly better than the cis isomer | mosquito invasion of a room (Mosquito [3]): None mosquito invaded | relative efficacy compared with dimefluthrin [1]: more than twice that of dimefluthrin | KT50 [1]: 3.1 min

Source: US20120076846A1, “Pyrethroid Compound, Preparation Process and Use Thereof” (priority 2009, published 2012)
